Results taken from US5912266A, “Beta2 integrin cell adhesion molecule inhibitors” (American Home Products Corporation, priority 1997, dated 1999).
Where “and” joins values, the source holds several entries; their conditions need not be identical. Equal entries are not always repeated.

Molecular target: T1, E-selectin (Homo sapiens, UniProt P16581)
T1 construct: calcein-labelled HL60 cells adhere
T1 sequence (P16581 22-556 limits assumed): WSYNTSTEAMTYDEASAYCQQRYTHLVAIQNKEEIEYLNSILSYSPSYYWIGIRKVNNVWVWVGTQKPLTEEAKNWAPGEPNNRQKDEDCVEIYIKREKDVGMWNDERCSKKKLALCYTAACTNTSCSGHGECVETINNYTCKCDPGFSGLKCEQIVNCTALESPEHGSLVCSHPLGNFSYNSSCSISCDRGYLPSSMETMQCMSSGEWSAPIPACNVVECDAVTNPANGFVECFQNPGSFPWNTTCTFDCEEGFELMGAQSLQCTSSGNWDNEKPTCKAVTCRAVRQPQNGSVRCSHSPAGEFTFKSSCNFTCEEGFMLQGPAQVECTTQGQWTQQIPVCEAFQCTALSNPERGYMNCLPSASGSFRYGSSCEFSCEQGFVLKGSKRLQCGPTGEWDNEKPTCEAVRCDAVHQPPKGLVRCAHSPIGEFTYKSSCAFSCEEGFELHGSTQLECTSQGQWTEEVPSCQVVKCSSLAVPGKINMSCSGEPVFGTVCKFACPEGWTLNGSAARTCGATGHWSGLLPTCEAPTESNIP
Test: Adhesion of HL60 cells to recombinant, soluble, human E-selectin
Type: cell-based
Conditions: for Percent Cells Bound: single well
Experimental: rsE-selectin was prepared and purified using standard molecular biology techniques. HL60 cells were obtained from American Type Culture Collection (ATCC) and maintained in culture media, as described in Example I, except that cells could be used in the assay at any passage number. Other materials required for the assay are as described in Examples I and II.
200 ng of purified, recombinant, soluble E-selectin contained in 100 μl of dPBS was added to wells of a flat bottom 96 well EIA/RIA plate. The control wells were filled with dPBS only and the assay plate was incubated at 4° C. for at least 18 hours to allow the rsE-selectin to bind to assay wells. The rsE-selectin solution was removed from the wells of the assay plate, washed, and blocked with 1% BSA, as described in Example II.
HL60 cells were harvested from culture, washed and labeled with calcein AM as outlined in Example I, except that the concentration of calcein used to label the HL-60 cells was 12.5 μM and cells were centrifuged at 1000 rpm for 5 minutes. After the final cell wash (see Example I), the cells were resuspended in ice-cold PMN buffer to 1.0×10^5 cells/40 μl and the cells were placed in the dark at room temperature until added to the assay plate.
The asperlin solutions were prepared as described in Example I. The dPBS remaining in the wells of the assay plate was removed by inverting the plate and tapping it on paper toweling and the assay was performed as described in Example II. 100 μl of PMN buffer was added to all wells of the assay plate and the fluorescence of the adherent HL-60 cells binding to rsE-selectin was measured using a fluorescent plate reader, described in Example I. The percentage of HL60 cells binding to E-selectin and the percentage of inhibition of HL60 cell adhesion to E-selectin in the presence of asperlin were also quantitated as described in Example II.

- Average Percent Bound (Asperlin 100 μg/ml): 62%
- Percent Cells Bound (Asperlin 100 μg/ml): 64% and 59%
- Average Percent Bound (Asperlin 200 μg/ml): 48%
- Percent Cells Bound (Asperlin 200 μg/ml): 52% and 44%
- inhibition at 100 µg/mL (HL-60, Asperlin 100 μg/ml): -19%
- inhibition at 200 µg/mL (HL-60, Asperlin 200 μg/ml): 8%
SMILES: CC(=O)OC1C=CC(=O)OC1C1OC1C [Asperlin, 6,7-Anhydro-2,3,8-trideoxy-D-galacto-oct-2-enoic acidδ-lactone 4-acetate]
- Bound Cell Fluorescence (Asperlin 100 μg/ml): 1412 fluorescence units/well and 1096 fluorescence units/well
- Bound Cell Fluorescence (Asperlin 200 μg/ml): 1124 fluorescence units/well and 887 fluorescence units/well
- Effect on E-selectin mediated HL60 cell binding (in words) (summary of Table III): does not inhibit E-selectin mediated HL60 cell binding
